Experimental findings from PubChem BioAssay (NCI) are described below.

Holding throughout (experiment): growth of human tumour cells (NCI), 48 h
In experiment [1] the test system is SF-268 CNS.
Experiment [2] concerns K-562 leukemia.
Experiment [3] deals with SN12C renal.
In experiment [4] the test system is NCI-H460 lung.
Experiment [5] has as its system OVCAR-3 ovarian.
The subject of experiment [6] is HCT-116 colon.
The subject of experiment [7] is NCI/ADR-RES ovarian.
The subject of experiment [8] is HS 578T breast.
Experiment [9] relates to ACHN renal.
In experiment [10] the test system is U251 CNS.

Several values for one entry are separate records, joined by “and”; a condition that tells them apart may be missing. Identical values can stand only once.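 Cells were grown in 96-well plates and exposed to each compound for 48 hours at five concentrations; endpoints were interpolated linearly between bracketing concentrations, or set to the highest concentration if not reached. Abbreviation: GI50, concentration required for 50% inhibition of growth. TGI: concentration producing complete growth inhibition.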

For the compound `COc1cc(/C=N/Nc2ncnc3c2cnn3Cc2ccccc2)ccc1O`, the GI50 is 5.34 µM in experiment [1]; over 6.57 µM in [2]; over 15.8 µM in experiment [3]; 8.98 µM in [4]; 6.8 µM in experiment [5]; 14 µM in experiment [6]. The GI50 was 7.35 µM in experiment [7], 4.16 µM in experiment [8], 4.13 µM in experiment [9] and 6.51 µM in [10]. Besides, the TGI in experiment [1] was 14.3 µM; in experiment [2] it was over 25 µM; in experiment [3], over 25 µM; in experiment [4], over 25 µM; in experiment [5] it was over 19.7 µM; in experiment [6], over 25 µM. For the same compound, the TGI was over 25 µM in [7], over 21.2 µM in experiment [8], over 25 µM in experiment [9] and over 25 µM in [10].
As to `CN1CCN(CCCN2c3ccccc3Sc3ccc(C(F)(F)F)cc32)CC1`, the GI50 in experiment [1] is 3.72 µM; in experiment [2] it was 2.13 µM and 2.01 µM and 4.6 µM; in experiment [3], 2.6 µM; in experiment [4] it was 1.99 µM; in experiment [5] it was 1.93 µM and 6.26 µM and 13.8 µM; in experiment [6], 1.78 µM. In addition, the GI50 in [7] was 1.91 µM; in [8], 2.22 µM; in experiment [9], 2.1 µM; in experiment [10] it was 1.7 µM. Besides, the TGI in [1] is 14.3 µM and 25.4 µM and 26.2 µM; in experiment [2], 4.27 µM and 28.6 µM; in [3], 12.8 µM and 22.2 µM and 26.1 µM; in [4], 4.15 µM and 5.21 µM and 12.1 µM; in experiment [5], 3.76 µM and 20.4 µM and 27 µM; in experiment [6], 3.26 µM and 17.5 µM and 20.3 µM. Besides, the TGI is 4.61 µM and 25 µM and 25.5 µM in experiment [7]; 8.41 µM and 14.7 µM and 20.6 µM in [8]; 4.67 µM and 23.3 µM and 24.7 µM in experiment [9]; 3.56 µM and 18.1 µM and 21.4 µM in experiment [10].
With `O=C1C(Cl)=C(Nc2ccccn2)C(=O)c2ccccc21`, the GI50 in experiment [1] was 2.74 µM; in experiment [2], 1.92 µM; in [3], 2.33 µM; in [4], 3.25 µM; in [5], 1.86 µM; in experiment [6] it was 1.95 µM. Further, the GI50 in [7] was 3.23 µM; in experiment [8] it was 3.65 µM; in experiment [9], 3 µM; in experiment [10] it was 3.24 µM. Moreover, the TGI in experiment [1] was 7.55 µM; in experiment [2], 5.42 µM; in [3], 5.17 µM; in experiment [4], 11.4 µM; in [5], 3.98 µM; in experiment [6] it was 4.1 µM. Also, the TGI in experiment [7] was 17.2 µM; in [8], over 100 µM; in experiment [9] it was 9.93 µM; in experiment [10] it was 11 µM.
`C=CCCC(O)c1ccc(CCCCCCCCCCC)o1` (stereo not given): the GI50 was 19.3 µM in [1]; 38.6 µM in [2]; 15.6 µM in experiment [3]; 28.9 µM in experiment [4]; 16.1 µM in experiment [5]; 18 µM in [6]. Further, the GI50 was 18.9 µM in [7], 12.6 µM in experiment [8], 15.6 µM in [9] and 17.5 µM in [10]. The TGI was 43.9 µM in [1]; over 100 µM in experiment [2]; 29 µM in [3]; over 100 µM in experiment [4]; 35.9 µM in experiment [5]; 32.2 µM in experiment [6]. Moreover, the TGI was 35.5 µM in [7], 30.2 µM in experiment [8], 28.9 µM in experiment [9] and 31.5 µM in experiment [10].
For `Cc1ccc(C)c(N2C(=O)C(=O)c3c(C)ccc(C)c32)c1`, the TGI in [1] was 78.2 µM; in experiment [2], 48.5 µM; in [3], over 100 µM; in [4] it was over 100 µM; in experiment [5], 34.1 µM; in experiment [6], 32 µM. In addition, the TGI in [7] stood at 62.9 µM; in experiment [8], 63.4 µM; in [9], 33.4 µM; in experiment [10] it was 35.2 µM.
Regarding `Cc1ccc2nc(CC(=O)c3ccc4ccccc4c3)c(=O)[nH]c2c1`, the TGI in experiment [1], in [2], in [3], in experiment [4], in experiment [5] and in [6] was over 100 µM throughout. The TGI in experiment [7], in experiment [8], in [9] and in experiment [10] was over 100 µM throughout.
Consider `O=C1c2ccccc2CCC1(Br)Br`, for which the GI50 was 4.1 µM in experiment [1]; 0.357 µM in experiment [2]; 2.18 µM in [3]; 5.28 µM in experiment [4]; 1.75 µM in experiment [5]; 0.888 µM in [6]. For the same compound, the GI50 in experiment [7] is 3.4 µM; in experiment [8] it was 4.08 µM; in experiment [9], 1.21 µM; in experiment [10], 5.67 µM. The TGI was determined as 14.1 µM in [1]; 2.02 µM in experiment [2]; 5.37 µM in [3]; 18.7 µM in experiment [4]; 3.17 µM in experiment [5]; 2.23 µM in experiment [6]. In addition, the TGI in experiment [7] is 17.3 µM; in [8] it was over 26.9 µM; in experiment [9], 2.55 µM; in [10], 15.9 µM.
As to `C=C(CN(C)C)C(=O)c1ccc(OC)cc1`, the TGI in experiment [1] amounted to 50.5 µM; in experiment [2] it was 4.39 µM; in experiment [3] it was 7.1 µM; in experiment [4] it was 44.6 µM; in experiment [5], 10.4 µM; in experiment [6], 12.8 µM. Besides, the TGI is 34.2 µM in [7], over 87 µM in [8], 3.01 µM in experiment [9] and 28.8 µM in [10].
Take `COCO[C@@H]1CC2C=Nc3cc(OCc4ccccc4)c(OC)cc3C(=O)N2C1` (stereo not given in full): the GI50 in experiment [1] is 0.646 µM; in [2] it was 0.45 µM; in [3], 0.49 µM; in experiment [4], 0.36 µM; in experiment [5] it was 0.222 µM; in [6], 0.66 µM. Moreover, the GI50 is 0.703 µM in [7], 0.572 µM in [8], 0.338 µM in [9] and 0.508 µM in experiment [10]. For the same compound, the TGI in experiment [1] is 9.31 µM; in experiment [2] it was over 100 µM; in experiment [3] it was 2.14 µM; in [4] it was 14.3 µM; in experiment [5], 3.13 µM; in experiment [6], 26 µM. Also, the TGI came to 6.39 µM in [7], 4.97 µM in experiment [8], 1.71 µM in [9] and 14.1 µM in [10].
Take `COc1ccc(CCN2COc3ccc4ccc(=O)oc4c3C2)cc1OC`: the TGI in experiment [1], in [2], in experiment [3], in experiment [4], in [5] and in experiment [6] was over 100 µM in each case. Also, the TGI in experiment [7], in [8], in experiment [9] and in experiment [10] was over 100 µM each time.
For `CC#CC(=O)N[C@H]1CCCN(c2c(F)cc(C(N)=O)c3[nH]c(C)c(C)c23)C1`, the GI50 in experiment [1] is 17.4 µM; in experiment [2] it was 26.8 µM; in experiment [3] it was 20.4 µM; in [4], 18.1 µM; in experiment [5], 21.9 µM; in experiment [6], 16 µM. The GI50 in experiment [7] was 19.9 µM; in experiment [8], 16.4 µM; in [9], 16.4 µM; in experiment [10], 17.3 µM. Moreover, the TGI in experiment [1] is 45.1 µM; in [2], over 100 µM; in experiment [3], 58.2 µM; in [4] it was 33.4 µM; in experiment [5] it was 63.7 µM; in [6], 31.2 µM. Further, the TGI was determined as 49.6 µM in [7], 83.3 µM in [8], 42.8 µM in experiment [9] and 36.3 µM in experiment [10].
Take `Cc1ccc(C(CC(=O)c2ccccc2)C(C(=O)c2ccccc2)C(c2ccc(C)cc2)C2C(=O)NC(=S)NC2=O)cc1` (stereo not given): the GI50 in [1] is 16.8 µM; in experiment [2], 26.7 µM; in experiment [3], 25.1 µM; in experiment [4], 6.66 µM; in experiment [5] it was 19 µM; in experiment [6], 19 µM. Further, the GI50 in experiment [7] was 8.05 µM; in [8], 21.7 µM; in experiment [9] it was 11.3 µM; in [10], 16.3 µM. In addition, the TGI in [1], in experiment [2], in [3], in experiment [4], in experiment [5] and in [6] was over 50 µM in each case. The TGI in experiment [7], in [8], in [9] and in experiment [10] was over 50 µM in each case.
For `C/C=C1\C[C@@H]2C(OC)Nc3cc(O)c(OC)cc3C(=O)N2C1` (stereo not given in full), the GI50 in experiment [1] was 0.0027 µM; in experiment [2], 0.00347 µM; in experiment [3] it was 0.00625 µM; in [4], 0.00356 µM; in experiment [5] it was 0.00419 µM; in [6], 0.0172 µM. In [10], the GI50 was 0.00353 µM. The TGI in experiment [1] was 0.174 µM and 1.71 µM; in experiment [2] it was 2.74 µM; in experiment [4] it was 0.598 µM and 1.53 µM; in experiment [5], 0.0341 µM; in [7], 0.0384 µM and < 0.0116 µM; in experiment [8], 0.0575 µM and < 0.0282 µM. Besides, the figures for the TGI in experiment [9] and in experiment [10] were 0.0294 µM and 10.1 µM, respectively.
